From patent US20090215893A1, “Parakeratosis inhibitor, pore-shrinking agent,or rough skin preventing/ameliorating agent, and external composition for skin” (Shiseido Company Ltd, priority 2005, published 2009)

Legend:
[1] = system: back of hairless mice (HR-1), 10 mass % oleic acid applied; assay: Inhibiting effect against rough skin induced by oleic acid application (transepidermal water loss); format: in vivo; parameters: ΔTEWL value: unit not given here; settings: for ΔTEWL value: three days, average of four animals, rough skin worse as value increases, control 12.0; for ΔTEWL value compared with the control aqueous solution / rough skin preventing/ameliorating effect: summary of Table 3, concentrations as in Table 3
Method: In order to investigate the inhibiting effect of α-amino acid derivatives and salts thereof against rough skin induced by oleic acid application, the transepidermal water loss (TEWL value) before and after application was measured, the difference was compared with the control (control aqueous solution), and the effect was determined. Sample preparation and the application method were in accordance with Example 1. The TEWL was determined using the TM210 TEWA Meter (Courage+Khazaka Electronic GmBH).
100 μL of 10 mass % oleic acid (solvent: ethanol) was applied to the back of hairless mice (HR-1, four mice per group). Then a sample solution (α-amino acid derivatives, and the like) was applied 100 μL at a time. This procedure was continued for three days. The following day, the TEWL value of the back was determined and the values of the four animals were averaged. Rough skin became worse as the ΔTEWL value increased.

[2] = system: cheek of a panel of 20 women; assay: Sensory irritation tests; format: in vivo, human; settings: for Evaluation (sensory irritation, class of average rating): 1 mL on cheek, evaluated for ten minutes, 20 women; for sensory irritation: summary of Table 4, β-alanine at 3%
Method: 1 mL of a control aqueous solution and the sample aqueous solution prepared in Example 1 were applied using a cotton swab to the left or right cheek, respectively, of a panel of 20 women, the irritating sensation was evaluated every 30 seconds for ten minutes beginning immediately after application, and a final evaluation was reported. The evaluation of the irritating sensation was based on the following four steps of rating criteria, the average rating was calculated, and the average was classified by the following criteria.
3: Discontinued because of extremely strong irritation, such as stinging sensation, burning sensation, tickling sensation, itching, and the like.
2: Intolerable strong irritation, such as stinging sensation, burning sensation, tickling sensation, itching, and the like.
1: Tolerable with only slight stinging sensation, burning sensation, tickling sensation, itching, and the like.
0: Not particularly irritating.
A: average rating of less than 0.2
B: average rating of 0.2 to less than 1.0
C: average rating of 1.0 to less than 2.0
D: average rating of 2.0 or greater

[3] = system: back of a hairless mouse (HR-1), 10 mass % oleic acid applied; assay: Parakeratosis-inhibiting effect tests: oleic acid applied to hairless mouse back, macroscopic rough skin evaluation and parakeratosis value; format: in vivo; settings: for Macroscopic evaluation (average of four animals): 100 μL after oleic acid, three days, rough skin score 0.0 (no redness) to 2.0 (control); for Parakeratosis value (average of four animals): tape-stripped stratum corneum, hematoxylin, range 1.0 to 3.0, higher = parakeratosis advanced, control 2.0; for parakeratosis value / parakeratosis-inhibiting effect / rough skin preventing effect, based on stratum corneum peeling and redness: summary of Table 1, concentrations as in Table 1
Method: Aqueous solutions (containing 30 mass % of ethanol) of primarily 3 mass % of an α-amino acid derivative or salt thereof were prepared as the evaluation sample. The pH was regulated by hydrochloric acid or sodium hydroxide so as to be 7.0 to 7.5. When sample solubility was low, the solution was prepared accordingly.
100 μL of 10 mass % oleic acid solution (solvent: ethanol) were applied to the back of a hairless mouse (HR-1; Hoshino Laboratory Animals). Then the sample solution (α-amino acid derivative, and the like) was applied 100 μL at a time. This procedure was continued for three days. […] The status of the skin was evaluated in 0.25-point intervals, with skin where the control (control aqueous solution) had been applied being 2.0 and skin where there was no redness being 0.0. At the same time, the stratum corneum at the back of the hairless mouse was peeled off with tape, the nuclei were stained by hematoxylin, and the degree of parakeratosis was observed and evaluated by a parakeratosis value within a range of 1.0 to 3.0 (in 0.25 increments).

[4] = system: pores of the cheeks of healthy human males; assay: Human pore-shrinking effect (replica assessment of cheek pores); format: in vivo; settings: for Replica assessment (average of n = 5): twice a day for one month, pore size rating 1-13, after application minus before application, control 0.3; for pore-shrinking effect: summary of Table 2, concentrations as in Table 2
Method: An experiment was conducted whereby a sample was applied twice a day for one month to the cheeks of healthy human males in groups of 5 men each. Aqueous solutions (containing 15 mass % of ethanol) of 3 mass % of the α-amino acid derivative or a salt thereof were prepared as the evaluation sample. The pH was regulated by hydrochloric acid or sodium hydroxide so as to be 7.0 to 7.5. When sample solubility was low, the solution was prepared accordingly. The control was an aqueous 15% ethanol solution. The sample aqueous solution and control aqueous solution were applied to one half of the face at a time.
A replica was collected before and after continuous application, and changes in the shape of the pores at the same site were observed using a three-dimensional laser scanning microscope. The size of the pores was macroscopically evaluated in 13 steps of 1 through 13 (with the pores becoming larger as the numbers became larger), the difference in the ratings before and after application (after application-before application) was calculated, and the efficacy of each sample was studied using this difference as the replica assessment.

Row | Compound | ΔTEWL value ([1]; sample 3 mass %) | ΔTEWL value compared with the control aqueous solution / rough skin preventing/ameliorating effect [1] | Evaluation (sensory irritation, class of average rating) ([2]; sample 3 mass %) | sensory irritation [2] | Macroscopic evaluation (average of four animals) ([3]; sample 3 mass %) | Parakeratosis value (average of four animals) ([3]; sample 3 mass %) | parakeratosis value / parakeratosis-inhibiting effect [3] | rough skin preventing effect, based on stratum corneum peeling and redness [3] | Replica assessment (average of n = 5) ([4]; sample 3 mass %) | pore-shrinking effect [4] | ΔTEWL value ([1]; sample 1.5 mass %) | Evaluation (sensory irritation, class of average rating) ([2]; sample 1.5 mass %) | Macroscopic evaluation (average of four animals) ([3]; sample 1.5 mass %) | Parakeratosis value (average of four animals) ([3]; sample 1.5 mass %) | Replica assessment (average of n = 5) ([4]; sample 1.5 mass %)
1 | CNC(CO)C(=O)O (racemic) [N-methyl-DL-serine] | 8.0 | significantly lower | A (average rating of less than 0.2) | no problems | 1.2 | 1.2 | reduced | seen | −0.7 | seen | – | – | – | – | –
2 | C[C@@H](NS(=O)(=O)c1ccccc1)C(=O)O [N-benzenesulfonyl-D-alanine] | – | – | – | – | – | – | – | – | – | – | 7.0 | A (average rating of less than 0.2) | 1.3 | 1.4 | −1.2
3 | O=C(O)[C@@H](CO)NS(=O)(=O)c1ccccc1 [N-benzenesulfonyl-D-serine] | 6.7 | significantly lower | A (average rating of less than 0.2) | no problems | 1.3 | 1.2 | reduced | seen | −1.1 | seen | – | – | – | – | –
4 | C[C@H](NS(=O)(=O)c1ccccc1)C(=O)O [N-benzenesulfonyl-L-alanine] | – | significantly lower | – | no problems | – | – | reduced | seen | – | seen | 7.2 | A (average rating of less than 0.2) | 1.2 | 1.3 | −0.9
5 | O=C(O)[C@H](CO)NS(=O)(=O)c1ccccc1 [N-benzenesulfonyl-L-serine] | 6.8 | significantly lower | A (average rating of less than 0.2) | no problems | 1.2 | 1.2 | reduced | seen | −1.2 | seen | – | – | – | – | –
6 | O=C(O)CNS(=O)(=O)c1ccccc1 [N-benzenesulfonyl-glycine] | 6.9 | significantly lower | A (average rating of less than 0.2) | no problems | 1.2 | 1.2 | reduced | seen | −1.3 | seen | – | – | – | – | –
7 | C[C@@H](NC(=O)OCc1ccccc1)C(=O)O [N-carbobenzoyloxy-D-alanine] | 7.1 | significantly lower | A (average rating of less than 0.2) | no problems | 1.2 | 1.1 | reduced | seen | −0.8 | seen | – | – | – | – | –
8 | O=C(N[C@H](CO)C(=O)O)OCc1ccccc1 [N-carbobenzoyloxy-D-serine] | 6.8 | significantly lower | A (average rating of less than 0.2) | no problems | 1.2 | 1.2 | reduced | seen | −1.3 | seen | – | – | – | – | –
9 | C[C@H](NC(=O)OCc1ccccc1)C(=O)O [N-carbobenzoyloxy-L-alanine] | 6.9 | significantly lower | A (average rating of less than 0.2) | no problems | 1.2 | 1.3 | reduced | seen | −0.9 | seen | – | – | – | – | –
10 | O=C(N[C@@H](CO)C(=O)O)OCc1ccccc1 [N-carbobenzoyloxy-L-serine] | 6.7 | significantly lower | A (average rating of less than 0.2) | no problems | 1.2 | 1.1 | reduced | seen | −1.2 | seen | – | – | – | – | –
11 | C[C@@H](NC1CCCCC1)C(=O)O [N-cyclohexyl-D-alanine] | 6.9 | significantly lower | A (average rating of less than 0.2) | no problems | 1.3 | 1.4 | reduced | seen | −1.3 | seen | – | – | – | – | –
12 | O=C(O)[C@@H](CO)NC1CCCCC1 [N-cyclohexyl-D-serine] | 6.8 | significantly lower | A (average rating of less than 0.2) | no problems | 1.3 | 1.2 | reduced | seen | −1.3 | seen | – | – | – | – | –
